The record followed here is US20250214991A1 (Oncopia Therapeutics, Inc. d/b/a/ SK Life Science Labs, priority 2022, published 2025).

The target in one test is CRBN/DDB1 (Homo sapiens (Human), UniProt Q96SW2). The experiment in a line: IC50 measurements for binding to CRBN/DDB1 (HTRF). To be noted: His tagged CRBN+DDB, Cy5-labeled Thalidomide probe, one hour. Here is the method:
In vitro Assay: IC50 Measurements for binding to CRBN/DDB1 (Table E1)
The binding potency was determined using HTRF assay technology (Perkin Elmer). Compounds were serially diluted in DMSO and 0.2 μL volume was transferred to white 384-well plate. The reaction was conducted in total volume of 20 μL with addition of 2 nM His tagged CRBN+DDB−DLS7+CXU4 (Wuxi, catalogue #RP210521GA) to compounds followed by addition of 60 nM Fluorescent probe Cy5-labeled Thalidomide (Tenova Pharma, catalogue #T52461), and 0.4 nM of MAb Anti-6HIS Tb cryptate Gold (Cisbio, catalogue #61HI2TLA in the assay buffer (50 mM HEPES pH 7.5, 1 mM TCEP, 0.01% Brij-35, 50 mM NaCl, and 0.1% BSA). After one hour incubation at room temperature, the HTRF signals were read on Envision reader (Perkin Elemer). Data was analyzed using XLfit using four parameters dose response curve to determine IC50s. A: IC50<0.1 μM; B: 0.1 μM<IC50<[…]; C: 0.5 μM<IC50<1 μM; D: 1 μM<IC50<5 μM; E: 5 μM<IC50<10 μM

The next test addresses IKZF1 (Homo sapiens (Human), UniProt Q13422+Q96SW2). The experiment in a line: In vitro IKZF1 HiBit Assay (HEK293T Flp-in-HiBiT-IKZF1 stable cell line). It counts as cell-based. To be noted: HEK293T Flp-in-HiBiT-IKZF1 stable cell line, 6 hrs incubation; for DC50: read-out: IKZF1 HiBit DC50; for Dmax: HEK-293T, read-out: IKZF1 HiBit Dmax (%). Summed up: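 Degradation was measured as loss of luminescence from the HiBiT-IKZF1 tag after 6 h compound treatment, with 0.1% final DMSO, in stable HEK293T Flp-in cells. Values were normalized to DMSO, giving the 50% degradation concentration and the maximal degradation range.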

The target of a further test is IKZF2 (Homo sapiens (Human), UniProt Q96SW2+Q9UKS7). In words: In vitro IKZF2 HiBit Assay (HEK293T Flp-in-HiBiT cells). It counts as cell-based. To be noted: HEK293T Flp-in-HiBiT cells, 6 hrs incubation; for DC50: read-out: IKZF2 HiBit DC50; for Dmax: HEK-293T, read-out: IKZF2 HiBit Dmax (%). Summed up: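 Remaining tagged Helios was read as lytic HiBiT/LgBiT luminescence normalized to DMSO, yielding binned DC50 and Dmax values. Treatment ran 6 h, with compounds at 11 three-fold doses diluted from 1 mM and 0.1% final DMSO. The cells were HEK293T Flp-in with CRISPR knock-in of HiBiT at the IKZF2 N-terminus.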
Chain of IKZF2 (Q9UKS7 whole entry): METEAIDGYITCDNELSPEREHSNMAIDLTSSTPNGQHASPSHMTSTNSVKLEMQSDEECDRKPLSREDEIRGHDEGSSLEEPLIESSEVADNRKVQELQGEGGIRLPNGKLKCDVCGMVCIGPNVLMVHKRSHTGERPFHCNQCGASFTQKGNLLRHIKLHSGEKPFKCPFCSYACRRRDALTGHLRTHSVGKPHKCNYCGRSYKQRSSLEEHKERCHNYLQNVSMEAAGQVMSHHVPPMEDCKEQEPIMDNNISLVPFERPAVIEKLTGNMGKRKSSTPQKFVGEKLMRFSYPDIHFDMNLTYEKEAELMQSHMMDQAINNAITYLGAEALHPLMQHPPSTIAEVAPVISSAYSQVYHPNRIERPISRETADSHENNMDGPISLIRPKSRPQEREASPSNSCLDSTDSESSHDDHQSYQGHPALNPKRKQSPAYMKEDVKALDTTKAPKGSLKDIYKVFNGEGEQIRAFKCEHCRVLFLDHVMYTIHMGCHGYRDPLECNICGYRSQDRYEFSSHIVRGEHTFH
Chain of IKZF2 (Q96SW2 whole entry): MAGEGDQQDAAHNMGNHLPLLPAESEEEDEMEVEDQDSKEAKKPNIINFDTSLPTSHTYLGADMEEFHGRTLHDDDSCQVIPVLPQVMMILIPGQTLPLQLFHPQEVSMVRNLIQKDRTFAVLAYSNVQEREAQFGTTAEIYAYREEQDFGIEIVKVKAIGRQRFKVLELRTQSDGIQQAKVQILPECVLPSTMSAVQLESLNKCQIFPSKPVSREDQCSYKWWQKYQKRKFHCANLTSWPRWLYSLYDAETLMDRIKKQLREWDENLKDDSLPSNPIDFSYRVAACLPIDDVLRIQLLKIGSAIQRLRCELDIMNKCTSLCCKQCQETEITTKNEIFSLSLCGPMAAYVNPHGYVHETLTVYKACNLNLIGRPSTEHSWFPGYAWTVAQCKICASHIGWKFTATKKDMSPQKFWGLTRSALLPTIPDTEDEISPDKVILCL
Chain of IKZF2 (Q16531 2-1140 partner): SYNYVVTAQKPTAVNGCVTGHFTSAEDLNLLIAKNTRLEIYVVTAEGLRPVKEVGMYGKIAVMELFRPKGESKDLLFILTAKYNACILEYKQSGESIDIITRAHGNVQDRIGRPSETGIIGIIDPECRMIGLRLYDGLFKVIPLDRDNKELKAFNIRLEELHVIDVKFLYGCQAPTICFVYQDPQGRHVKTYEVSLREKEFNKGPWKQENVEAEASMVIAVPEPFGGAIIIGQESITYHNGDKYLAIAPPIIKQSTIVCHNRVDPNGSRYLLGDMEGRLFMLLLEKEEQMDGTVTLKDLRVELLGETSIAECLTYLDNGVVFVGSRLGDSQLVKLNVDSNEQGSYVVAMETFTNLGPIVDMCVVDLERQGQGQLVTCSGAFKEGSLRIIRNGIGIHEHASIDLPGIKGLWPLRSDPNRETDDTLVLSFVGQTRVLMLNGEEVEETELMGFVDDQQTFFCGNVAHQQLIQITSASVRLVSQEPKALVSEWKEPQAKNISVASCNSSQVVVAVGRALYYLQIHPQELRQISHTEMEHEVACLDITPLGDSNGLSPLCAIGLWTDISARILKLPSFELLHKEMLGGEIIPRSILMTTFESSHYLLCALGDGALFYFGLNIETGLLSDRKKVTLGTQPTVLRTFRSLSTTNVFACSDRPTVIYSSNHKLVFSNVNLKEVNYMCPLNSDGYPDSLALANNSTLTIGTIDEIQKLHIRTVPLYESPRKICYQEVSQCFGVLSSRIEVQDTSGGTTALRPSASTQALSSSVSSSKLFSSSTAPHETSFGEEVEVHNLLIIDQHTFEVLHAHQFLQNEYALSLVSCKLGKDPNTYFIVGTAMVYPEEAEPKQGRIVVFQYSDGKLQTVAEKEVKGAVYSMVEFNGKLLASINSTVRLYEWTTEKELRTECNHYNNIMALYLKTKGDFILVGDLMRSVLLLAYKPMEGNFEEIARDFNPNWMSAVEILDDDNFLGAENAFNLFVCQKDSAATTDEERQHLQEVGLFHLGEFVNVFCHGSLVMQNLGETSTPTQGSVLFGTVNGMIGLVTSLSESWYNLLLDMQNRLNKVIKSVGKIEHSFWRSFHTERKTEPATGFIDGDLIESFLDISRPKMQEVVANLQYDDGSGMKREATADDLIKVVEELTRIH

Chain of IKZF1 (Q13422 whole entry): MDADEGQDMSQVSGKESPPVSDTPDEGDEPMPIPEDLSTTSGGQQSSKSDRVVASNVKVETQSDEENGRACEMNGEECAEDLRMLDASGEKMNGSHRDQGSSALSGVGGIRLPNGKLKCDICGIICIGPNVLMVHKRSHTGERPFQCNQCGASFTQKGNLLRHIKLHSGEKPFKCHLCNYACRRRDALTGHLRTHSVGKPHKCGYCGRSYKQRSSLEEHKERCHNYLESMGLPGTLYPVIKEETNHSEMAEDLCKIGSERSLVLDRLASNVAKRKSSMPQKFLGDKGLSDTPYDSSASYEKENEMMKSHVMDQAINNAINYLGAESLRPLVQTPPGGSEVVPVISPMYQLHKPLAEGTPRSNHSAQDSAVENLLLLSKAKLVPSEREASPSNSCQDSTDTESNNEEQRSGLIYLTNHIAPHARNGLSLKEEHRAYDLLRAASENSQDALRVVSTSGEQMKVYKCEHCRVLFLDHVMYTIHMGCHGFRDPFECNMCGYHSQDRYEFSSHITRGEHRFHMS
Chain of IKZF1 (Q96SW2 whole entry): as the sequence (Q96SW2 whole entry) above
Chain of IKZF1 (Q16531 2-1140 partner): as the sequence (Q16531 2-1140 partner) above
Chain of CRBN/DDB1 (Q96SW2 whole entry, species assumed): as the sequence (Q96SW2 whole entry) above
Chain of CRBN/DDB1 (Q16531 whole entry partner, species assumed): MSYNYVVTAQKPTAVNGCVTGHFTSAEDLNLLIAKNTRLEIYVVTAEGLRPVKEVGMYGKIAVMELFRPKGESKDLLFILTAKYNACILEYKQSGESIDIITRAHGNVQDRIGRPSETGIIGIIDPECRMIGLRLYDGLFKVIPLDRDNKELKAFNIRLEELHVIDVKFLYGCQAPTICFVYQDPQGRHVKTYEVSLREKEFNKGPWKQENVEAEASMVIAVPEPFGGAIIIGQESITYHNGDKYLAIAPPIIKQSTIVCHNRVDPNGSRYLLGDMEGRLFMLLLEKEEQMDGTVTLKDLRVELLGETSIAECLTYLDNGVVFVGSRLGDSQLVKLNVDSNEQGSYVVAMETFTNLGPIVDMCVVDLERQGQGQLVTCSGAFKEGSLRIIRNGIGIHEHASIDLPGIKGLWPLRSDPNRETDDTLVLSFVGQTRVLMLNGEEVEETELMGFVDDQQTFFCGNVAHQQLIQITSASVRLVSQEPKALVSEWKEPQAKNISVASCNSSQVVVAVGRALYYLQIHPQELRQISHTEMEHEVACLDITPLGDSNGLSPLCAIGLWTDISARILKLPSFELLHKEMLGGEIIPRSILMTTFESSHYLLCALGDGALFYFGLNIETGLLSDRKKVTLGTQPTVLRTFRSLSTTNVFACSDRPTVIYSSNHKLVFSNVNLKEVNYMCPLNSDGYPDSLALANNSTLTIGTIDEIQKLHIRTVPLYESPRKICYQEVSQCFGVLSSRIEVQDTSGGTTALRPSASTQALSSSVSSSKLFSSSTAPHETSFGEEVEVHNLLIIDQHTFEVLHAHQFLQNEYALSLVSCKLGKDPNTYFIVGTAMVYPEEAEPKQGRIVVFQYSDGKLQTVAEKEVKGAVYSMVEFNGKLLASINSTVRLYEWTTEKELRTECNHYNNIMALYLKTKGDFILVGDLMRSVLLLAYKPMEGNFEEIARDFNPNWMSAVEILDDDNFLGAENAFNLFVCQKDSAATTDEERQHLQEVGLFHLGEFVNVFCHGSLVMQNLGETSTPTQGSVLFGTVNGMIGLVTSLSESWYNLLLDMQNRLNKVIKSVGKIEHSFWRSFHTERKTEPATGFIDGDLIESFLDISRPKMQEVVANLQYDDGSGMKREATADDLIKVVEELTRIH

Compound `O=C1CCC(N2Cc3cc(-c4cc(CN5CCCC5)cc5cncn45)cc(F)c3C2=O)C(=O)N1` (centres unmarked) [Example 28, 3-(7-fluoro-1-oxo-5-(7-(pyrrolidin-1-ylmethyl)imidazo[1,5-a]pyridin-5-yl)isoindolin-2-yl) piperidine-2,6-dione] displayed an IC50 at CRBN/DDB1 of 500 to 1000 nM.

As to `O=C1CCC(N2Cc3cc(-c4cc(CN5CCCC5)cc5cncn45)c(F)cc3C2=O)C(=O)N1` (centres unmarked) [Example 29, 3-(6-fluoro-1-oxo-5-(7-(pyrrolidin-1-ylmethyl)imidazo[1,5-a]pyridin-5-yl)isoindolin-2-yl) piperidine-2,6-dione], at CRBN/DDB1, the IC50 lay in the range of 1000 to 5000 nM.

Take `COc1cc2c(cc1-c1cc(CN3CCCC3)cc3cncn13)CN(C1CCC(=O)NC1=O)C2=O` (centres unmarked) [Example 30, 3-(6-methoxy-1-oxo-5-(7-(pyrrolidin-1-ylmethyl)imidazo[1,5-a]pyridin-5-yl)isoindolin-2-yl) piperidine-2,6-dione]: on IKZF1, the DC50 is > 10 µM and the Dmax was < 20%. Also, the IC50 at CRBN/DDB1 fell in the range of 1000 to 5000 nM. For the same compound, at IKZF2, the DC50 lay within 1000 to 10000 nM and the Dmax is < 20%.

Consider `COc1cc(-c2cc(CN3CCCC3)cc3cncn23)cc2c1C(=O)N(C1CCC(=O)NC1=O)C2` (centres unmarked) [Example 32, 3-(7-methoxy-1-oxo-5-(7-(pyrrolidin-1-ylmethyl)imidazo[1,5-a]pyridin-5-yl)isoindolin-2-yl) piperidine-2,6-dione], for which, on CRBN/DDB1, the IC50 was 100 to 500 nM.

`O=C1CCC(N2Cc3cc(-c4cc(CN5CCCC5c5ccccc5)cc5nncn45)ccc3C2=O)C(=O)N1` (centres unmarked) [Example 50, 3-(1-oxo-5-(7-((2-phenylpyrrolidin-1-yl)methyl)-[1,2,4]triazolo[4,3-a]pyridin-5-yl)isoindolin-2-yl) piperidine-2,6-dione]: the IC50 at CRBN/DDB1 fell in the range of 1000 to 5000 nM.

In the case of `Cn1ccc2c(CN3CCCCC3)cc(-c3ccc4c(c3)CN(C3CCC(=O)NC3=O)C4=O)nc21` (centres unmarked) [Example 57, 3-(5-(1-methyl-4-(piperidin-1-ylmethyl)-1H-pyrrolo[2,3-b]pyridin-6-yl)-1-oxoisoindolin-2-yl) piperidine-2,6-dione], on IKZF1, the DC50 is > 10 µM and the Dmax was in the range of 20 to 40%. In addition, the IC50 on CRBN/DDB1 was in the range of 100 to 500 nM. Also, at IKZF2, the DC50 was < 1 nM and the Dmax is > 80%.

Take `Cn1ccc2c(CN3CCOCC3)cc(-c3ccc4c(c3)CN(C3CCC(=O)NC3=O)C4=O)nc21` (centres unmarked) [Example 58, 3-(5-(1-methyl-4-(morpholinomethyl)-1H-pyrrolo[2,3-b]pyridin-6-yl)-1-oxoisoindolin-2-yl) piperidine-2,6-dione]: at IKZF1, the DC50 was > 10 µM and the Dmax is < 20%. The same compound gave an IC50 at CRBN/DDB1 of 500 to 1000 nM. Also, on IKZF2, the DC50 was 1 to 10 nM and the Dmax fell in the range of 60 to 80%.

Regarding `O=C1CCC(N2Cc3cc(-c4cc(CN5CCCC5)c5cc[nH]c5n4)ccc3C2=O)C(=O)N1` (centres unmarked) [Example 59, 3-(1-oxo-5-(4-(pyrrolidin-1-ylmethyl)-1H-pyrrolo[2,3-b]pyridin-6-yl)isoindolin-2-yl) piperidine-2,6-dione], on IKZF1, the DC50 is > 10 µM and the Dmax fell in the range of 20 to 40%. The compound further registered a 50% inhibitory concentration (IC50) at CRBN/DDB1 of 100 to 500 nM. Further, on IKZF2, the DC50 was in the range of 1 to 10 nM and the Dmax is > 80%.

In the case of `Cn1ccc2c(CN3CCC(F)(F)CC3)cc(-c3ccc4c(c3)CN(C3CCC(=O)NC3=O)C4=O)nc21` (centres unmarked) [Example 60, 3-(5-(4-((4,4-difluoropiperidin-1-yl)methyl)-1-methyl-1H-pyrrolo[2,3-b]pyridin-6-yl)-1-oxoisoindolin-2-yl) piperidine-2,6-dione], the figures for the DC50 on IKZF1 and at IKZF2 were > 10 µM and 1 to 10 nM, respectively. For the same compound, the Dmax on IKZF1 was < 20%; at IKZF2 it was 60 to 80%. The compound further had an IC50 on CRBN/DDB1 of 500 to 1000 nM.

Turning to `Cn1ccc2c(CN3CCN(S(C)(=O)=O)CC3)cc(-c3ccc4c(c3)CN(C3CCC(=O)NC3=O)C4=O)nc21` (centres unmarked) [Example 61, 3-(5-(1-methyl-4-((4-(methylsulfonyl)piperazin-1-yl)methyl)-1H-pyrrolo[2,3-b]pyridin-6-yl)-1-oxoisoindolin-2-yl) piperidine-2,6-dione], on IKZF1, the DC50 was > 10 µM and the Dmax is < 20%. In addition, the IC50 on CRBN/DDB1 is 500 to 1000 nM. In addition, on IKZF2, the DC50 was 10 to 100 nM and the Dmax lay within 40 to 60%.

On to `Cn1ccc2c(CN3CCSCC3)cc(-c3ccc4c(c3)CN(C3CCC(=O)NC3=O)C4=O)nc21` (centres unmarked) [Example 62, 3-(5-(1-methyl-4-(thiomorpholinomethyl)-1H-pyrrolo[2,3-b]pyridin-6-yl)-1-oxoisoindolin-2-yl) piperidine-2,6-dione], for which the DC50 on IKZF1 was > 10 µM; at IKZF2, 1 to 10 nM. Further, the Dmax at IKZF1 was < 20%; on IKZF2, > 80%. Also, the IC50 on CRBN/DDB1 lay within 100 to 500 nM.

Turning to `Cn1ccc2c(CN3CC4COCC4C3)cc(-c3ccc4c(c3)CN(C3CCC(=O)NC3=O)C4=O)nc21` (centres unmarked) [Example 63, 3-(5-(1-methyl-4-((tetrahydro-1H-furo[3,4-c]pyrrol-5 (3H)-yl)methyl)-1H-pyrrolo[2,3-b]pyridin-6-yl)-1-oxoisoindolin-2-yl) piperidine-2,6-dione], the DC50 is > 10 µM at IKZF1 and < 1 nM at IKZF2. The results for the Dmax at IKZF1 and at IKZF2 were 20 to 40% and > 80%, respectively. The compound further gave a half-inhibitory concentration (IC50) on CRBN/DDB1 of 100 to 500 nM.

Turning to `Cn1ccc2c(CN3CCC4(CC3)CC4)cc(-c3ccc4c(c3)CN(C3CCC(=O)NC3=O)C4=O)nc21` (centres unmarked) [Example 64, 3-(5-(4-((6-azaspiro[2.5]octan-6-yl)methyl)-1-methyl-1H-pyrrolo[2,3-b]pyridin-6-yl)-1-oxoisoindolin-2-yl) piperidine-2,6-dione], on IKZF1, the DC50 was > 10 µM and the Dmax is 20 to 40%. The compound also showed an IC50 at CRBN/DDB1 of 100 to 500 nM. Moreover, at IKZF2, the DC50 is < 1 nM and the Dmax is > 80%.

As to `Cn1ccc2c(CN3CCc4ccccc4C3)cc(-c3ccc4c(c3)CN(C3CCC(=O)NC3=O)C4=O)nc21` (centres unmarked) [Example 65, 3-(5-(4-((3,4-dihydroisoquinolin-2 (1H)-yl)methyl)-1-methyl-1H-pyrrolo[2,3-b]pyridin-6-yl)-1-oxoisoindolin-2-yl) piperidine-2,6-dione], at IKZF1, the DC50 is > 10 µM and the Dmax lay within 20 to 40%. For the same compound, the IC50 on CRBN/DDB1 lay in the range of 100 to 500 nM. On IKZF2, the DC50 fell in the range of 1 to 10 nM and the Dmax was > 80%.

`Cn1ccc2c(CN3CC4CC4C3)cc(-c3ccc4c(c3)CN(C3CCC(=O)NC3=O)C4=O)nc21` (centres unmarked) [Example 66, 3-(5-(4-((3-azabicyclo[3.1.0]hexan-3-yl)methyl)-1-methyl-1H-pyrrolo[2,3-b]pyridin-6-yl)-1-oxoisoindolin-2-yl) piperidine-2,6-dione]: on IKZF1, the DC50 was > 10 µM and the Dmax fell in the range of 20 to 40%. The same compound had an IC50 on CRBN/DDB1 of 100 to 500 nM. For the same compound, at IKZF2, the DC50 is < 1 nM and the Dmax is > 80%.

Turning to `Cn1ccc2c(CN3Cc4ccccc4C3)cc(-c3ccc4c(c3)CN(C3CCC(=O)NC3=O)C4=O)nc21` (centres unmarked) [Example 67, 3-(5-(4-(isoindolin-2-ylmethyl)-1-methyl-1H-pyrrolo[2,3-b]pyridin-6-yl)-1-oxoisoindolin-2-yl) piperidine-2,6-dione], on IKZF1, the DC50 was > 10 µM and the Dmax fell in the range of 20 to 40%. In addition, the half-maximal inhibitory concentration (IC50) on CRBN/DDB1 fell in the range of 500 to 1000 nM. In addition, on IKZF2, the DC50 was in the range of 1 to 10 nM and the Dmax was 60 to 80%.

As for `Cn1ccc2c(CN3CCS(=O)(=O)CC3)cc(-c3ccc4c(c3)CN(C3CCC(=O)NC3=O)C4=O)nc21` (centres unmarked) [Example 68, 3-(5-(4-((1,1-dioxidothiomorpholino)methyl)-1-methyl-1H-pyrrolo[2,3-b]pyridin-6-yl)-1-oxoisoindolin-2-yl) piperidine-2,6-dione], at IKZF1, the DC50 was > 10 µM and the Dmax is < 20%. Besides, the IC50 on CRBN/DDB1 lay in the range of 1000 to 5000 nM. Besides, on IKZF2, the DC50 fell in the range of 100 to 1000 nM and the Dmax was in the range of 20 to 40%.

With `Cn1ccc2c(CN3CCC4(CCC4)CC3)cc(-c3ccc4c(c3)CN(C3CCC(=O)NC3=O)C4=O)nc21` (centres unmarked) [Example 69, 3-(5-(4-((7-azaspiro[3.5]nonan-7-yl)methyl)-1-methyl-1H-pyrrolo[2,3-b]pyridin-6-yl)-1-oxoisoindolin-2-yl) piperidine-2,6-dione], on IKZF1, the DC50 was > 10 µM and the Dmax lay within 20 to 40%. On CRBN/DDB1, the IC50 lay within 100 to 500 nM. Moreover, at IKZF2, the DC50 is < 1 nM and the Dmax was > 80%.
